From ChEMBL document CHEMBL1201861, “Genomics of Drug Sensitity in Cancer screening data, Wellcome Trust Sanger Institute”

Legend:
Test in all cases: cells
BFTC-905 = format: functional, cell-based, Homo sapiens; conditions: Homo sapiens, BFTC-905
Description: SANGER: Inhibition of human BFTC-905 cell growth in a cell viability assay.

U-251 = format: functional, cell-based, Homo sapiens; conditions: Homo sapiens, U-251;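 note: growth inhibition of human U-251 cells, read out through a cell viability assay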
Description: SANGER: Inhibition of human U251 cell growth in a cell viability assay.

GP5d = format: functional, cell-based, Homo sapiens; conditions: Homo sapiens, GP5d;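 note: growth inhibition of human GP5d cells, read out with a cell viability assay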
Description: SANGER: Inhibition of human GP5d cell growth in a cell viability assay.

KP-N-YN = format: functional, cell-based, Homo sapiens; conditions: Homo sapiens, KP-N-YN;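 note: growth inhibition of KP-N-YN cells, read out with a cell viability assay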
Description: SANGER: Inhibition of human KP-N-YN cell growth in a cell viability assay.

CAL-51 = format: functional, cell-based, Homo sapiens; conditions: Homo sapiens, CAL-51;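 note: human CAL-51 cell line, growth inhibition read out via a cell viability assay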
Description: SANGER: Inhibition of human CAL-51 cell growth in a cell viability assay.

NCI-H1993 = format: functional, cell-based, Homo sapiens; conditions: Homo sapiens, NCI-H1993;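 note: growth inhibition of the cancer cell line, assessed with a cell viability assay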
Description: SANGER: Inhibition of human NCI-H1993 cell growth in a cell viability assay.

SK-OV-3 = format: functional, cell-based, Homo sapiens; conditions: Homo sapiens, SK-OV-3;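 note: growth inhibition of SK-OV-3 human cells, read out with a cell viability assay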
Description: SANGER: Inhibition of human SK-OV-3 cell growth in a cell viability assay.

CAKI-1 = format: functional, cell-based, Homo sapiens; conditions: Homo sapiens, CAKI-1;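 note: growth inhibition of CAKI-1 cells, measured by a cell viability assay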
Description: SANGER: Inhibition of human CAKI-1 cell growth in a cell viability assay.

HCT-15 = format: functional, cell-based, Homo sapiens; conditions: Homo sapiens, HCT-15;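 note: cell viability readout, IC50 reflecting suppression of HCT-15 cell growth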
Description: SANGER: Inhibition of human HCT-15 cell growth in a cell viability assay.

KYSE-150 cell line = format: functional, cell-based, Homo sapiens; conditions: Homo sapiens, KYSE-150;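 note: growth inhibition of human KYSE-150 cells, read out with a cell viability assay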
Description: SANGER: Inhibition of human KYSE-150 cell growth in a cell viability assay.

Capan-2 = format: functional, cell-based, Homo sapiens; conditions: Homo sapiens, Capan-2;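 note: Capan-2 cell growth inhibition, read out with a viability assay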
Description: SANGER: Inhibition of human Capan-2 cell growth in a cell viability assay.

D-423MG = format: functional, cell-based, Homo sapiens; conditions: Homo sapiens, D-423MG
Description: SANGER: Inhibition of human D-423MG cell growth in a cell viability assay.

Detroit 562 = format: functional, cell-based, Homo sapiens; conditions: Homo sapiens, Detroit 562;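 note: growth inhibition of human Detroit 562 cells, read out by a cell viability assay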
Description: SANGER: Inhibition of human Detroit562 cell growth in a cell viability assay.

SK-HEP1 = format: functional, cell-based, Homo sapiens, SK-HEP-1; conditions: Homo sapiens, SK-HEP1;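 note: cell viability readout used to quantify reduction in proliferation of human SK-HEP-1 cells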
Description: SANGER: Inhibition of human SK-HEP-1 cell growth in a cell viability assay.

OAW-28 = format: functional, cell-based, Homo sapiens; conditions: Homo sapiens, OAW-28;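 note: growth inhibition of OAW-28 cells, read out with a cell viability assay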
Description: SANGER: Inhibition of human OAW-28 cell growth in a cell viability assay.

MHH-ES-1 = format: functional, cell-based, Homo sapiens; conditions: Homo sapiens, MHH-ES-1;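 note: cell growth inhibition measured by a cell viability assay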
Description: SANGER: Inhibition of human MHH-ES-1 cell growth in a cell viability assay.

RPMI-2650 = format: functional, cell-based, Homo sapiens; conditions: Homo sapiens, RPMI-2650
Description: SANGER: Inhibition of human RPMI-2650 cell growth in a cell viability assay.

HuO9 = format: functional, cell-based, Homo sapiens; conditions: Homo sapiens, HuO9;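 note: growth inhibition of HuO9 cells, read out with a cell viability assay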
Description: SANGER: Inhibition of human HuO9 cell growth in a cell viability assay.

A 172 = format: functional, cell-based, Homo sapiens; conditions: Homo sapiens, A 172;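 note: growth inhibition of A172 cells, measured with a cell viability readout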
Description: SANGER: Inhibition of human A172 cell growth in a cell viability assay.

UACC-893 = format: functional, cell-based, Homo sapiens; conditions: Homo sapiens, UACC-893
Description: SANGER: Inhibition of human UACC-893 cell growth in a cell viability assay.

HCC38 = format: functional, cell-based, Homo sapiens; conditions: Homo sapiens, HCC38;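 note: cell viability assay on the human HCC38 cell line, with IC50 marking the concentration that inhibits cell growth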
Description: SANGER: Inhibition of human HCC38 cell growth in a cell viability assay.

M059J = format: functional, cell-based, Homo sapiens; conditions: Homo sapiens, M059J;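 note: growth inhibition of M059J cells, read out with a cell viability assay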
Description: SANGER: Inhibition of human M059J cell growth in a cell viability assay.

HT-1376 = format: functional, cell-based, Homo sapiens; conditions: Homo sapiens, HT-1376
Description: SANGER: Inhibition of human HT-1376 cell growth in a cell viability assay.

CAL-12T = format: functional, cell-based, Homo sapiens; conditions: Homo sapiens, CAL-12T;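 note: growth inhibition of human CAL-12T cells, read out with a cell viability assay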
Description: SANGER: Inhibition of human CAL-12T cell growth in a cell viability assay.

CAL-85-1 = format: functional, cell-based, Homo sapiens; conditions: Homo sapiens, CAL-85-1;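 note: growth inhibition of human CAL-85-1 cells, read out with a cell viability assay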
Description: SANGER: Inhibition of human CAL-85-1 cell growth in a cell viability assay.

NCI-H1048 = format: functional, cell-based, Homo sapiens; conditions: Homo sapiens, NCI-H1048;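 note: growth inhibition of human NCI-H1048 cells, read out with a cell viability assay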
Description: SANGER: Inhibition of human NCI-H1048 cell growth in a cell viability assay.

NCI-H1792 = format: functional, cell-based, Homo sapiens; conditions: Homo sapiens, NCI-H1792;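 note: growth inhibition of human NCI-H1792 cells, read out as cell viability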
Description: SANGER: Inhibition of human NCI-H1792 cell growth in a cell viability assay.

HCC1806 = format: functional, cell-based, Homo sapiens; conditions: Homo sapiens, HCC1806;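 note: growth inhibition of the cancer cell line, determined with a cell viability assay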
Description: SANGER: Inhibition of human HCC1806 cell growth in a cell viability assay.

ABC-1 = format: functional, cell-based, Homo sapiens; conditions: Homo sapiens, ABC-1;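 note: growth inhibition of human ABC-1 cells, read out by a cell viability assay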
Description: SANGER: Inhibition of human ABC-1 cell growth in a cell viability assay.

NCI-H358 = format: functional, cell-based, Homo sapiens; conditions: Homo sapiens, NCI-H358;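 note: growth inhibition of NCI-H358 human cells, read out with a cell viability assay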
Description: SANGER: Inhibition of human NCI-H358 cell growth in a cell viability assay.

NCI-H522 = format: functional, cell-based, Homo sapiens; conditions: Homo sapiens, NCI-H522;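 note: cell viability assay measuring growth inhibition of human NCI-H522 cells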
Description: SANGER: Inhibition of human NCI-H522 cell growth in a cell viability assay.

KOSC-2 = format: functional, cell-based, Homo sapiens; conditions: Homo sapiens, KOSC-2;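 note: growth inhibition of KOSC-2 cells, read out by a cell viability assay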
Description: SANGER: Inhibition of human KOSC-2 cell growth in a cell viability assay.

CHP-212 = format: functional, cell-based, Homo sapiens; conditions: Homo sapiens, CHP-212
Description: SANGER: Inhibition of human CHP-212 cell growth in a cell viability assay.

MIA PaCa-2 = format: functional, cell-based, Homo sapiens; conditions: Homo sapiens, MIA PaCa-2;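 note: growth inhibition of MIA PaCa-2 cells, read out with a cell viability assay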
Description: SANGER: Inhibition of human MIA-PaCa-2 cell growth in a cell viability assay.

SJRH30 = format: functional, cell-based, Homo sapiens; conditions: Homo sapiens, SJRH30;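 note: growth inhibition of human SJRH30 cells, read out with a cell viability assay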
Description: SANGER: Inhibition of human SJRH30 cell growth in a cell viability assay.

RMG-I = format: functional, cell-based, Homo sapiens; conditions: Homo sapiens, RMG-I;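 note: growth inhibition of human RMG-I cells, read out with a cell viability assay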
Description: SANGER: Inhibition of human RMG-I cell growth in a cell viability assay.

ME-180 = format: functional, cell-based, Homo sapiens; conditions: Homo sapiens, ME-180;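 note: cell viability assay measuring growth inhibition of ME-180 cells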
Description: SANGER: Inhibition of human ME-180 cell growth in a cell viability assay.

SMILES | IC50 (BFTC-905) | IC50 (U-251) | IC50 (GP5d) | IC50 (KP-N-YN) | IC50 (CAL-51) | IC50 (NCI-H1993) | IC50 (SK-OV-3) | IC50 (CAKI-1) | IC50 (HCT-15) | IC50 (KYSE-150 cell line) | IC50 (Capan-2) | IC50 (D-423MG) | IC50 (Detroit 562) | IC50 (SK-HEP1) | IC50 (OAW-28) | IC50 (MHH-ES-1) | IC50 (RPMI-2650) | IC50 (HuO9) | IC50 (A 172) | IC50 (UACC-893) | also measured
CC(C)c1ccccc1Cc1cc(C(=O)Nc2ccc(S(=O)(=O)c3ccccc3C(C)(C)C)cc2)c(O)c(O)c1O | 708 nM | 388 nM | 782 nM | 15.9 µM | 349 nM | 1040 nM | 527 nM | 216 nM | 202 nM | 465 nM | 6.04 µM | 473 nM | 1270 nM | 1510 nM | 294 nM | 500 nM | 238 nM | 727 nM | 794 nM | 1430 nM | IC50 (HCC38): 676 nM; IC50 (M059J): 1300 nM; IC50 (HT-1376): 1.9 µM; IC50 (CAL-12T): 1120 nM; IC50 (CAL-85-1): 1430 nM; IC50 (NCI-H1048): 214 nM; IC50 (NCI-H1792): 690 nM; IC50 (HCC1806): 1430 nM; IC50 (ABC-1): 316 nM; IC50 (NCI-H358): 1490 nM; IC50 (NCI-H522): 2080 nM; IC50 (KOSC-2): 496 nM; IC50 (CHP-212): 4.57 µM; IC50 (MIA PaCa-2): 479 nM; IC50 (SJRH30): 137 nM; IC50 (RMG-I): 207 nM
CC(C)CCN1c2nc(Nc3cc(F)c(O)c(F)c3)ncc2N(C)C(=O)C1C (stereo not drawn) | 1560 nM | 2730 nM | > 5000 nM | > 5 µM | 4870 nM | > 5000 nM | > 5000 nM | > 5000 nM | > 5000 nM | 2150 nM | > 5 µM | 4810 nM | > 5000 nM | > 5000 nM | > 5000 nM | 4830 nM | > 5000 nM | 2370 nM | 517 nM | > 5000 nM | IC50 (ME-180): 2780 nM; IC50 (HCC38): > 5000 nM; IC50 (M059J): 3710 nM; IC50 (HT-1376): 4.23 µM; IC50 (CAL-12T): 4060 nM; IC50 (CAL-85-1): > 5000 nM; IC50 (NCI-H1048): 2680 nM; IC50 (NCI-H1792): 2740 nM; IC50 (HCC1806): > 5000 nM; IC50 (ABC-1): > 5000 nM; IC50 (NCI-H358): > 5000 nM; IC50 (NCI-H522): > 5000 nM; IC50 (KOSC-2): 1130 nM; IC50 (CHP-212): > 5 µM; IC50 (MIA PaCa-2): 4360 nM; IC50 (SJRH30): > 5000 nM; IC50 (RMG-I): > 5000 nM
